# Paper PMC4660506 (Pharmacognosy Research, 2015)
# How the values were obtained:
# xanthine oxidase (XO) = xanthine oxidase (XO) (Bos taurus, UniProt P80457); test: Xanthine oxidase inhibitory activity; type: biochemical
# alpha-amylase = target: T1, alpha-amylase (Sus scrofa, UniProt P00690); test: Alpha-amylase inhibitory activity; type: biochemical; conditions: qualitative statement
# T1 sequence (P00690 16-511): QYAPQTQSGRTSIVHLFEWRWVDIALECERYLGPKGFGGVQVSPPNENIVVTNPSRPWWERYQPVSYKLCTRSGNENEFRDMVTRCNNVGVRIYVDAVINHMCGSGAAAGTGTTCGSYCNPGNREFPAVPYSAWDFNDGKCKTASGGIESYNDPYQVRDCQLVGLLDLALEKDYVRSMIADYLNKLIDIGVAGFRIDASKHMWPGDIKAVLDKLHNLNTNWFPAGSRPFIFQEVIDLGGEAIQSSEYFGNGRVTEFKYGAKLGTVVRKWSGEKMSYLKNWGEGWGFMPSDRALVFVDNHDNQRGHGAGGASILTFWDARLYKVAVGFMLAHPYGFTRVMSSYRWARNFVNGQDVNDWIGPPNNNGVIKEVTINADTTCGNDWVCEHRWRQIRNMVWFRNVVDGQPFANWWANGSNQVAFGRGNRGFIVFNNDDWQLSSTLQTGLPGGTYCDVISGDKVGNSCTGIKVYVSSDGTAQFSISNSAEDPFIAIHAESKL
# xanthine oxidase (XO), sequence (P80457 2-1332 limits assumed): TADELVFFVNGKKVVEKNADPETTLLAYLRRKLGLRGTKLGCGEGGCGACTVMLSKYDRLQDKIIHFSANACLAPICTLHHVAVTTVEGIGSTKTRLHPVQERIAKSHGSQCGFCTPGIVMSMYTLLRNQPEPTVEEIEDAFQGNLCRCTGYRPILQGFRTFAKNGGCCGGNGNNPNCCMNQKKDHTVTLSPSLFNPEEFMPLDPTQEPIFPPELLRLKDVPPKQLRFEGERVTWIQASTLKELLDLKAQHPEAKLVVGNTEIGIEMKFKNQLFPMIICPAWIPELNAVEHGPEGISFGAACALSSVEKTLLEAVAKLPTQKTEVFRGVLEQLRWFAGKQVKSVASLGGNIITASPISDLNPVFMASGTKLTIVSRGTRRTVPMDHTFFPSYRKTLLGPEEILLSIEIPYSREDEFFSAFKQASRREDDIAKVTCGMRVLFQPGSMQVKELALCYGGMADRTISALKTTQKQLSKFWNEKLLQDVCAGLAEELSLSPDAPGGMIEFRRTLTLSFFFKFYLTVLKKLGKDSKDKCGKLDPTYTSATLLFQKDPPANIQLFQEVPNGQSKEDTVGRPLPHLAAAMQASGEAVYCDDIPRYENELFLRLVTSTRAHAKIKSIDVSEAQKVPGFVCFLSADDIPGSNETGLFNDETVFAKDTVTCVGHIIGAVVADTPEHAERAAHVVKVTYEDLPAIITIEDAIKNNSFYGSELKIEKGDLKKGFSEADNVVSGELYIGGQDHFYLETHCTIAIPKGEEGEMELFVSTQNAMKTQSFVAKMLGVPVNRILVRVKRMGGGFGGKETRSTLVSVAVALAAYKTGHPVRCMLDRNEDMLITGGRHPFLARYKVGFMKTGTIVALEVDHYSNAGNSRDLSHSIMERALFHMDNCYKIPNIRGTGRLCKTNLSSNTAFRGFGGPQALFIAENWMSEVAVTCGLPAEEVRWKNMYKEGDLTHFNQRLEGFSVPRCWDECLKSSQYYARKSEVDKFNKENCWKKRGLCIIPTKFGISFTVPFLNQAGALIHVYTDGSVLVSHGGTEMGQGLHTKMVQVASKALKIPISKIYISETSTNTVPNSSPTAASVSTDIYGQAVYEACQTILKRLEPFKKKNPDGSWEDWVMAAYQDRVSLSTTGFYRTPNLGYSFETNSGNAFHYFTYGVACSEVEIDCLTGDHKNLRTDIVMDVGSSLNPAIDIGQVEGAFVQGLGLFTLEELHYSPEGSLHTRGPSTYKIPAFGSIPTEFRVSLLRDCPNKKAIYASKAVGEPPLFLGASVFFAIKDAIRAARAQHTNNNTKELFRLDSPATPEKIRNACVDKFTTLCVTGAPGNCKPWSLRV
Compound,XO inhibitory activity (in words) (xanthine oxidase (XO); qualitative statement),Alpha-amylase inhibitory activity (in words) (alpha-amylase),further results
2-hydroxyacetophenone [F2],active,–,–
"CC[C@H](CC[C@@H](C)[C@H]1CC[C@H]2[C@@H]3CC=C4C[C@@H](O)CC[C@]4(C)[C@H]3CC[C@]12C)C(C)C [F7, β-sitosterol]",–,more active against alpha-amylase as compared to the parent fraction,–
"C[C@@H]1O[C@@H](OC[C@H]2O[C@@H](Oc3c(-c4ccc(O)c(O)c4)oc4cc(O)cc(O)c4c3=O)[C@H](O)[C@@H](O)[C@@H]2O)[C@H](O)[C@H](O)[C@H]1O [F9, rutin]",active,–,EC50 (xanthine oxidase (XO)): 17.5 µM
"O=c1c(O)c(-c2ccc(O)c(O)c2)oc2cc(O)cc(O)c12 [F10, quercetin]",–,–,"XO inhibitory activity (in words) (xanthine oxidase (XO); qualitative statement in text, listed as Quercetin): highest inhibitory activity; XO inhibitory activity (in words) (xanthine oxidase (XO); qualitative statement in text, listed as quercetin): active"
"C=C(C)[C@@H]1CC[C@]2(C)CC[C@]3(C)[C@H](CC[C@@H]4[C@@]5(C)CC[C@H](O)C(C)(C)[C@@H]5CC[C@]43C)[C@@H]12 [F11, lupeol]",–,more active against alpha-amylase as compared to the parent fraction,–
